# Measured values: patent US5629430A, “Trifluoromethylpyrroloindolecarboxylic acid ester and process for production thereof” (Kyorin Pharmaceutical Co., Ltd., priority 1992, dated 1997)
# Where a name gives a salt, the structure may show the parent alone.
# Test system: P388 mouse leukemia cells
# Test: Activity against tumor cell growth (P388, MTT, 72 h)
# Format: cell-based
# Conditions: P388 mouse leukemia cells, 72 h, 37° C., MTT; read-out: IC50 (50% growth inhibition concentration)
# Method: Using a culture medium RPMI1640 supplemented with 10% inactivated bovine fetal serum, 2 mM glutamine, 100 μ/ml kanamycin sulfate, and 5 μM 2-hydroxyethyldisulfide (This culture medium is hereinafter referred to simply as "culture medium"), P388 mouse leukemia cells were diluted to a concentration of 1.5×10^5 cells/ml in the culture medium, and were placed in each well of 96-well multiplate in 60 μl portions. Separately, the test compound was dissolved in dimethylsulfoxide and was adequately diluted with the culture medium. The diluted solution containing test compound was added to the wells of the above plate respectively in 60 μl portions. Then the cells were incubated in a CO2 -incubator (5% CO2, 37° C.) for 72 hours.
# The surviving cell numbers were measured according to the Mosmann's method (J. Immunol. Meth., 65 55-63, 1983) as follows. A 2.5 mg/ml solution of MTT (3-[4,5-dimethylthiazol-2-yl]-2,5-diphenyltetrazolium bromide) in Dulbecco's phosphate buffer solution (PBS) was prepared and added to each of the wells by 20 μl. The cells were further incubated for 3 hours. A 150 μl portion of 0.04N hydrochloric acid-isopropanol solution was added to each of the wells, and MTT-formazane formed was allowed to dissolve by pipetting. The absorbance of the solutions was measured at 540 nm taking the no-cell-containing [solution as the background. The 50% growth inhibition concentration (ICs50) was calculated from ratio of the absorbances of the treated samples to the absorbance of the no-medicine-treated sample, and from the concentration of the test compound.
row,SMILES,IC50 [ng/mL]
1,"COC(=O)c1c(C(F)(F)F)[nH]c2c(O)cc3c(c12)C(CCl)CN3C(=O)c1cc2cc(NC(=O)c3cc4cccc(OC)c4o3)ccc2[nH]1 (stereo not drawn) [Example 11, Methyl 1-chloromethyl-5-hydroxy-3-[5-[(7-methoxybenzofuran-2-ylcarbonyl)amino]-1H-indol-2-ylcarbonyl]-7-trifluoromethyl-1,2,3,6-tetrahydropyrrolo[3,2-e]indole-8-carboxylate]",0.67
2,"COC(=O)c1c(C(F)(F)F)[nH]c2c(O)cc3c(c12)C(CCl)CN3C(=O)c1cc2cc(NC(=O)c3ccc4ccccc4c3)ccc2[nH]1 (stereo not drawn) [Example 15, Methyl 1-chloromethyl-5-hydroxy-3-[5-[(naphthalene-3-ylcarbonyl)amino]-1H-indol-2-ylcarbonyl]-7-trifluoromethyl-1,2,3,6-tetrahydropyrrolo[3,2-e]indole-8-carboxylate]",0.83
3,"COC(=O)c1c(C(F)(F)F)[nH]c2c(O)cc3c(c12)C(CCl)CN3C(=O)c1cc2cc(NC(=O)c3cc4c(cn3)[nH]c3ccccc34)ccc2[nH]1 (stereo not drawn) [Example 19, Methyl 1-chloromethyl-5-hydroxy-3-[5-[(9H-pyrido[3,4-b]indol-3-ylcarbonyl)amino]-1H-indol-2ylcarbonyl]-7-trifluoromethyl-1,2,3,6-tetrahydropyrrolo[3,2e]indole-8-carboxylate]",0.11
4,"COC(=O)c1c(C(F)(F)F)[nH]c2c(O)cc3c(c12)C(CBr)CN3C(=O)c1cc2cc(NC(=O)c3cc4c(OC)c(OC)c(OC)cc4cn3)ccc2[nH]1 (stereo not drawn) [Example 44, Methyl 1-bromomethyl-5-hydroxy-7-trifluoromethyl-3-[5-[(5,6,7-trimethoxyisoquinolin-3-ylcarbonyl)amino]-1H-indol-2-ylcarbonyl]-1,2,3,6-tetrahydropyrrolo[3,2-e]indole-8-carboxylate]",0.07
5,"COC(=O)c1c(C(F)(F)F)[nH]c2c(O)cc3c(c12)C(CBr)CN3C(=O)c1cc2cc(NC(=O)c3cc4c(cn3)[nH]c3ccccc34)ccc2[nH]1 (stereo not drawn) [Example 45, Methyl 1-bromomethyl-5-hydroxy-3-[5-[(9H-pyrido[3,4-b]indol-3-ylcarbonyl)amino]-1H-indol-2-ylcarbonyl]-7-trifluoromethyl-1,2,3,6-tetrahydropyrrolo[3,2-e]indole-8-carboxylate]",0.12
6,"COC(=O)c1c(C(F)(F)F)[nH]c2c(O)cc3c(c12)[C@H](CCl)CN3C(=O)c1cc2cc(NC(=O)OC(C)(C)C)ccc2[nH]1 [Example 64, Methyl (1S)-3-[5-(t-butoxycarbonyl)amino-1H-indol-2-ylcarbonyl]-1-chloromethyl-5-hydroxy-7-trifluoromethyl-1,2,3,6-tetrahydropyrrolo[3,2-e]indole-8-carboxylate]",3.9
7,"COC(=O)c1c(C(F)(F)F)[nH]c2c(O)cc3c(c12)[C@H](CCl)CN3C(=O)c1cc2cc(NC(=O)CN(C)C)ccc2[nH]1 [Example 65, Methyl (1S)-1-chloromethyl-3-[5 (dimethylaminomethylcarbonyl)amino-1H-indol-2-ylcarbonyl]-5-hydroxy-7-trifluoromethyl-1,2,3,6-tetrahydropyrrolo[3,2-e]indole-8-carboxylate]",0.11
8,"COC(=O)c1c(C(F)(F)F)[nH]c2c(O)cc3c(c12)[C@H](CCl)CN3C(=O)c1cc2c(OC)cccc2o1 [Example 66, Methyl (1S)-1-chloromethyl-5-hydroxy-3-(4-methoxybenzofuran-2-ylcarbonyl)-7-trifluoromethyl-1,2,3,6-tetrahydropyrrolo[3,2-e]indole-8-carboxylate]",0.77
9,"COC(=O)c1c(C(F)(F)F)[nH]c2c(O)cc3c(c12)[C@H](CCl)CN3C(=O)c1cc2cc(OC)ccc2o1 [Example 67, Methyl (1S)-1-chloromethyl-5-hydroxy-3-(5-methoxybenzofuran-2-ylcarbonyl)-7-trifluoromethyl-1,2,3,6-tetrahydropyrrolo[3,2-e]indole-8-carboxylate]",0.026
10,"COC(=O)c1c(C(F)(F)F)[nH]c2c(O)cc3c(c12)[C@H](CCl)CN3C(=O)c1cc2ccc(OC)cc2o1 [Example 68, Methyl (1S)-1-chloromethyl-5-hydroxy-3-(6-methoxybenzofuran-2-ylcarbonyl)-7-trifluoromethyl-1,2,3,6-tetrahydropyrrolo[3,2-e]indole-8-carboxylate]",0.051
11,"COC(=O)c1c(C(F)(F)F)[nH]c2c(O)cc3c(c12)[C@H](CCl)CN3C(=O)c1cc2cc(OC)c(OC)c(OC)c2o1 [Example 69, Methyl (1S)-1-chloromethyl-5-hydroxy-7-trifluoromethyl-3-(5,6,7-trimethoxybenzofuran-2-ylcarbonyl)-1,2,3,6-tetrahydropyrrolo[3,2-e]indole-8-carboxylate]",0.046
12,"COC(=O)c1c(C(F)(F)F)[nH]c2c(O)cc3c(c12)[C@H](CCl)CN3C(=O)c1cc2cccc(OC)c2o1 [Example 70, Methyl (1S)-1-chloromethyl-5-hydroxy-3-(7-methoxybenzofuran-2-ylcarbonyl)-7-trifluoromethyl-1,2,3,6-tetrahydropyrrolo[3,2-e]indole-8-carboxylate]",2
13,"COC(=O)c1c(C(F)(F)F)[nH]c2c(O)cc3c(c12)[C@H](CCl)CN3C(=O)/C=C/c1ccc(OC)cc1 [Example 74, Methyl (1S)-1-chloromethyl-5-hydroxy-3-[2-(4-methoxyphenyl)ethylene-1-ylcarbonyl]-7-trifluoromethyl-1,2,3,6-tetrahydropyrrolo[3,2-e]indole-8-carboxylate]",1.3
14,"COC(=O)c1c(C(F)(F)F)[nH]c2c1[C@@]13C[C@@H]1CN(C(=O)c1cc4cc(NC(=O)OC(C)(C)C)ccc4[nH]1)C3=CC2=O [Example 84, Methyl (7bR, 8aS)-2-[5-(t-butoxycarbonyl)amino-1H-indole-2-ylcarbonyl]-6-trifluoromethyl-1,2,8,8a-tetrahydrocyclopropa[c]pyrrolo[3,2-e]indole-4 (5H)-one-7-carboxylate]",1.7

# Test system: Sarcoma-180 cells
# Test: Antineoplastic activity, mice having Sarcoma-180 cells transplanted subcutaneously
# Format: in vivo, mouse (female, CDR strain)
# Conditions: Mus musculus, Sarcoma-180, iv, 144 h, read-out: T/C (average tumor weight, dosed vs. solvent-dosed control)
# Method: The test compound was dissolved in dimethylsulfoxide, and the solution was adequately diluted with 10% Emulfore EL620(produced by Rhone Poulenc Co.) to prepare the test compound solution. The antineoplastic activity was evaluated as below.
# To the lateral region of a female mouse (CDR strain, 5 to 6 week age), 3.6×10^6 to 5×10^6 Sarcoma-180 cells were transplanted subcutaneously. Next day, the test medicine solution was injected into the tail vein in a single dose. Eight to twelve mice were employed for the solvent-dosed control group, and five mice were employed for the dosed group. Six days after the dosage, the tumor was cut out, and the weight thereof was measured. The antineoplastic effect was evaluated by the ratio (T/C) of the average tumor weight of the dosed group (T) to the average tumor weight of the solvent-dosed control group (C).
SMILES,response vs control in vivo at 4 mg/kg [%],response vs control in vivo at 1 mg/kg [%],response vs control in vivo at 0.25 mg/kg [%]
"COC(=O)c1c(C(F)(F)F)[nH]c2c(OC(=O)N3CCN(C)CC3)cc3c(c12)C(CCl)CN3C(=O)c1cc2cc(NC(=O)c3cc4cc(OC)c(OC)c(OC)c4[nH]3)ccc2[nH]1 (stereo not drawn) [Example 51, Methyl 1-chloromethyl-5-(4-methylpiperazin-1-ylcarbonyl)oxy-7-trifluoromethyl-3-[5-[(5,6,7-trimethoxy1H-indol-2-ylcarbonyl)amino]-1H-indol-2-ylcarbonyl)-1,2,3,6tetrahydropyrrolo[3,2-e]indol, e-8-carboxylate]",25,–,–
"COC(=O)c1c(C(F)(F)F)[nH]c2c(OC(=O)N3CCN(C)CC3)cc3c(c12)C(CCl)CN3C(=O)c1cc2cc(NC(=O)c3cc4ccccc4cn3)ccc2[nH]1 (stereo not drawn) [Example 52, Methyl 1-chloromethyl-5-(4-methylpiperazin-1-ylcarbonyl)oxy-3-[5-[(isoquinolin-3-ylcarbonyl)amino]-1H-indol-2-ylcarbonyl)-7-trifluoromethyl-1,2,3,6-tetrahydropyrrolo[3,2-e]indole-8-carboxylate]",–,12,–
"COC(=O)c1c(C(F)(F)F)[nH]c2c(OC(=O)N3CCN(C)CC3)cc3c(c12)C(CBr)CN3C(=O)c1cc2cc(NC(=O)c3cc4cc(OC)c(OC)c(OC)c4[nH]3)ccc2[nH]1 (stereo not drawn) [Example 53, Methyl 1-bromomethyl-5-(4-methylpiperazin-1-ylcarbonyl)oxy-7-trifluoromethyl-3-[5-[(5,6,7-trimethoxy1H-indol-2-ylcarbonyl)amino]1H-indol-2-ylcarbonyl]-1,2,3,6-tetrahydropyrrolo[3,2-e]indole-8-carboxylate]",20,–,–
"COC(=O)c1c(C(F)(F)F)[nH]c2c(OC(=O)N3CCN(C)CC3)cc3c(c12)C(CBr)CN3C(=O)c1cc2cc(NC(=O)c3cc4ccccc4cn3)ccc2[nH]1 (stereo not drawn) [Example 54, Methyl 1-bromomethyl-5-(4-methylpiperazin-1-ylcarbonyl)oxy-3-[5-[(isoquinolin-3-ylcarbonyl)amino]-1H-indol-2-ylcarbonyl]-7-trifluoromethyl-1,2,3,6-tetrahydropyrrolo[3,2-e]indole-8-carboxylate hydrochloride salt]",–,–,15

# Same assay, conditions: Mus musculus, Sarcoma-180, iv, 144 h; i.v. 0.25 mg/kg single dose, tumor weighed six days after dosage; read-out: T/C (average tumor weight, dosed vs. solvent-dosed control)
row,SMILES,response vs control in vivo at 0.25 mg/kg [%]
1,"COC(=O)c1c(C(F)(F)F)[nH]c2c(O)cc3c(c12)C(CCl)CN3C(=O)c1cc2cc(NC(=O)c3cc4c(cn3)[nH]c3ccccc34)ccc2[nH]1 (stereo not drawn) [Example 19, Methyl 1-chloromethyl-5-hydroxy-3-[5-[(9H-pyrido[3,4-b]indol-3-ylcarbonyl)amino]-1H-indol-2ylcarbonyl]-7-trifluoromethyl-1,2,3,6-tetrahydropyrrolo[3,2e]indole-8-carboxylate]",22

# Same assay, conditions: Mus musculus, Sarcoma-180, iv, 144 h; i.v. 0.5 mg/kg single dose, tumor weighed six days after dosage; read-out: T/C (average tumor weight, dosed vs. solvent-dosed control)
row,SMILES,response vs control in vivo at 0.5 mg/kg [%]
1,"COC(=O)c1c(C(F)(F)F)[nH]c2c(O)cc3c(c12)C(CCl)CN3C(=O)c1cc2cc(NC(=O)c3ccc4ccccc4c3)ccc2[nH]1 (stereo not drawn) [Example 15, Methyl 1-chloromethyl-5-hydroxy-3-[5-[(naphthalene-3-ylcarbonyl)amino]-1H-indol-2-ylcarbonyl]-7-trifluoromethyl-1,2,3,6-tetrahydropyrrolo[3,2-e]indole-8-carboxylate]",11

# Same assay, conditions: Mus musculus, Sarcoma-180, iv, 144 h; i.v. 1.0 mg/kg single dose, tumor weighed six days after dosage; read-out: T/C (average tumor weight, dosed vs. solvent-dosed control)
row,SMILES,response vs control in vivo at 1 mg/kg [%]
1,"COC(=O)c1c(C(F)(F)F)[nH]c2c(O)cc3c(c12)C(CCl)CN3C(=O)c1cc2cc(NC(=O)c3cc4cccc(OC)c4o3)ccc2[nH]1 (stereo not drawn) [Example 11, Methyl 1-chloromethyl-5-hydroxy-3-[5-[(7-methoxybenzofuran-2-ylcarbonyl)amino]-1H-indol-2-ylcarbonyl]-7-trifluoromethyl-1,2,3,6-tetrahydropyrrolo[3,2-e]indole-8-carboxylate]",6
